Series [1] deals with bloodstream form T. b. brucei (strain 221). Kind of series: Growth inhibition of cultured bloodstream-form T. brucei (resazurin). The following applies: for IC50 / IC90: cultured bloodstream-form Trypanosoma brucei, pH = 7.4, mean of triplicate ± SEM; for IC50: concentration inhibiting growth by 50%; for IC90: concentration inhibiting growth by 90%; for times more potent than 18 / times more potent than the nonmethylated counterpart / times more potent than the unsubstituted parent: T. brucei IC50; for times more potent than the nonmethylated counterpart: 21 vs 18, 22 vs 19, 23 vs 20, 26 vs 24; for trypanocidal activity (in words): bloodstream-form T. brucei; for times more potent than the unsubstituted parent: 19 and 20 vs 18, 25 vs 24, 28 vs 27. The class given is cell-based, Trypanosoma brucei. On the procedure: The new hydroxamic acid derivatives 18–28 were tested against bloodstream-form T. brucei in vitro. The results are presented in Table 1, and are expressed as IC50 and IC90 values. […]
Reference: minimized structure, heterocycle and adamantane cage).
IV. Experimental procedures for the biological evaluation of the compounds
Growth inhibition analysis was carried out using bloodstream form T. b. brucei (strain 221) cultured at
37 °C, as previously described.8 Briefly, experiments were performed using 96-well microtiter plates (200
μL volumes), with each assay initiated with 2.5 x10^4 parasites mL−1, and test compounds then added at 7
concentrations in a range that had been established in preliminary experiments to encompass both EC50
and EC90 values. Plates were incubated for 48 hours, resazurin (20 μL at 0.125 mg mL−1) was then added,
and the plates re-incubated for 16 hours. Fluorescence was determined using a BMG FLUOstar Omega plate
reader (excitation 545 nm, emission 590 nm), and the data analysed using GraphPad Prism 9.0 software.
The data are expressed as IC50/IC90 ± SD, and are the average of 3 independent replicates. […]
A general note: Resazurin is reduced to fluorescent resorufin, in cell work by metabolically active cells.

Series [2] deals with L6 cells (a rat myoblast line). Kind of series: Cytotoxicity against cultured rat skeletal myoblast L6 cells (resazurin). Particulars: for IC50: cultured rat skeletal myoblast L6 cells, mean of triplicate ± SEM; for Selectivity indices (SIs): ratio of the IC50 for L6 cells and T. brucei. In kind it is cell-based. On the procedure:
(§1) To determine cytotoxicity, L6 cells (a rat myoblast line) were seeded at 1x104 mL−1 into 96-well microtiter plates (200 μL of growth medium), at a range of compound concentrations. After 6 days incubation at 37°C, 20 μL resazurin (0.125 mg mL−1) was added to each well. The plates were incubated for 6 hours, and fluorescence determined by plate reader, as above. […]

Series [3] relates to T. brucei. The following applies: spiro carbocyclic 2,6-DKP-1-acetohydroxamic acids 1-5 reported previously; cited from earlier work.
Series [4] can be described thus: Cytotoxicity against cultured rat skeletal myoblast L6 cells (resazurin). The class given is cell-based. Particulars: rat, L6 rat skeletal myoblast cells, cultured rat skeletal myoblast L6 cells; mean of triplicate ± SEM. On the procedure: as §1

The structures appear in SMILES notation.

A word on the IC50: it is the concentration at which inhibition is half-maximal. As usually defined, the IC90 is the concentration at which the effect reaches the 90% level. Read a high IC90 as weaker potency. In series [1], `CC(C)C[C@@H]1NC2(CCCCCCC2)C(=O)N(CC(=O)NCC(=O)NO)C1=O.Cl` [Compound 25.HCl] showed an IC50 of 850 nM and an IC90 of 1.71 µM. Further, in series [2], the IC50 is 249 µM and the “Selectivity indices (SIs)” value is on record as 295.
For `Cl.O=C(CNC(=O)CN1C(=O)[C@H](Cc2ccccc2)NC2(C1=O)C1CC3CC(C1)CC2C3)NO` (stereo partly drawn) [Compound 20.HCl], in that order: 1530 nM, 4.26 µM, 25 µM and 16.
Consider `C[C@@H]1NC2(C(=O)N(CC(=O)NO)C1=O)C1CC3CC(C1)CC2C3` (stereo partly drawn) [Compound 1c], for which the IC50 in series [3] was 134 nM.
Consider `O=C(CN1C(=O)CNC2(CCCCCCC2)C1=O)NO` [Compound 4a], for which the half-inhibitory concentration (IC50) in series [3] is 300 nM.
`CC(C)C[C@@H]1NC2(C(=O)N(CC(=O)N(C)CC(=O)NO)C1=O)C1CC3CC(C1)CC2C3` (stereo partly drawn) [Compound 22]: in series [1], the “times more potent than 18” value was 735 fold and the “times more potent than the nonmethylated counterpart” value came to 12 fold. For the same molecule, in series [1] (Trypanosoma brucei), the half-inhibitory concentration (IC50) is 34 ± 2 nM and the concentration for an effect of 90% (IC90) turned out to be 0.057 ± 0.005 µM. Half-maximal inhibition in series [4] (IC50 at 6 days) was put at 32 ± 3 µM. For the same molecule, the “Selectivity indices (SIs)” value in series [2] is 940.
Turning to `CN(CC(=O)NO)C(=O)CN1C(=O)CNC2(CCCCCCC2)C1=O` [Compound 26], the “times more potent than the nonmethylated counterpart” value in series [1] is given as > 8 fold. This molecule also displayed a half-inhibitory concentration (IC50) in series [1] (Trypanosoma brucei) of 38000 ± 8000 nM.
As to `CN(CC(=O)NO)C(=O)CN1C(=O)[C@H](Cc2ccccc2)NC2(C1=O)C1CC3CC(C1)CC2C3` (stereo partly drawn) [Compound 23], in series [1], the “times more potent than 18” value was 472 fold and the “times more potent than the nonmethylated counterpart” value was 23 fold. In series [1] (Trypanosoma brucei), this molecule displayed an IC50 of 53 ± 11 nM and a concentration for an effect of 90% (IC90) of 0.081 ± 0.003 µM. In series [4], the 50% inhibitory concentration (IC50) at 6 days stood at 25 ± 2 µM. For the same molecule, the “Selectivity indices (SIs)” value in series [2] is recorded as 470.
For the molecule `O=C(CNC(=O)CN1C(=O)CNC2(C1=O)C1CC3CC(C1)CC2C3)NO` (stereo not drawn) [Compound 18], the “fold loss in potency” value in series [1] (T. brucei IC50 relative to compound 1a (insertion of acetamido portion)) was 278 fold. In addition, in series [1] (Trypanosoma brucei), the half-maximal inhibitory concentration (IC50) was 25000 ± 3000 nM and the IC90 worked out at 36 ± 2 µM. Further, in series [1], the “trypanocidal activity (in words)” value is given as “marginal activity”.
For `O=C(CNC(=O)CN1C(=O)CNC2(CCCCCCC2)C1=O)NO` [Compound 24], in series [1] (Trypanosoma brucei), the IC50 was > 300000 nM and the IC90 was > 300 µM. In addition, the “trypanocidal activity (in words)” value in series [1] is “inactive”.
On to `CC(C)C[C@@H]1NC2(CCCCCCC2)C(=O)N(CC(=O)NCC(=O)NO)C1=O` [Compound 25], for which the “times more potent than the unsubstituted parent” value in series [1] is > 252 fold. In series [1] (Trypanosoma brucei), this molecule returned a half-maximal inhibitory concentration (IC50) of 1190 ± 280 nM and an IC90 of 1.9 ± 0.1 µM. Besides, in series [4], the half-maximal inhibitory concentration (IC50) at 6 days worked out at 223 ± 28 µM. Also, the “Selectivity indices (SIs)” value in series [2] is on record as 185.
Take `O=C(CN1C(=O)[C@@H](Cc2ccccc2)NC2(C1=O)C1CC3CC(C1)CC2C3)NO` (stereo partly drawn) [Compound 1g]: in series [3], the concentration for half-maximal inhibition (IC50) is 9.1 nM.
As to `O=C(CN1C(=O)CNC2(CCCCCC2)C1=O)NO` [Compound 5a], in series [3], the IC50 was 1870 nM.
Take `O=C(CN1C(=O)[C@H](Cc2ccccc2)NC2(CCCCCCC2)C1=O)NO` [Compound 4f]: in series [3], the IC50 is 29 nM.
For the molecule `CC(C)C[C@@H]1NC2(C(=O)N(CC(=O)NO)C1=O)C1CC3CC(C1)CC2C3` (stereo partly drawn) [Compound 1d], the 50% inhibitory concentration (IC50) in series [3] is 283 nM.
On to `CSCC[C@@H]1NC2(C(=O)N(CC(=O)NO)C1=O)C1CC3CC(C1)CC2C3` (stereo partly drawn) [Compound 1e], for which the IC50 in series [3] was 168 nM.
For `O=C(CN1C(=O)C(Cc2ccc(Cl)cc2)NC2(C1=O)C1CC3CC(C1)CC2C3)NO` (stereo not drawn) [Compound 3], the concentration for half-maximal inhibition (IC50) in series [3] was 32 nM.
Take `O=C(CN1C(=O)C(Cc2ccccc2)NC2(C1=O)C1CC3CC(C1)CC2C3)NO` (stereo not drawn) [Compound 2]: the IC50 in series [3] is 17 nM.
As for `O=C(CN1C(=O)CNC2(C1=O)C1CC3CC(C1)CC2C3)NO` (stereo not drawn) [Compound 1a], in series [3], the half-maximal inhibitory concentration (IC50) was 90 nM.
Turning to `CC(C)C[C@@H]1NC2(C(=O)N(CC(=O)NCC(=O)NO)C1=O)C1CC3CC(C1)CC2C3` (stereo partly drawn) [Compound 19], the “times more potent than the unsubstituted parent” value in series [1] was 62 fold. In series [1] (Trypanosoma brucei), this molecule gave a half-maximal inhibitory concentration (IC50) of 400 ± 90 nM and an IC90 of 0.98 ± 0.05 µM. The same molecule displayed an IC50 at 6 days in series [4] of 35 ± 4 µM. In addition, in series [2], the “Selectivity indices (SIs)” value stood at 90.
Regarding `C[C@@H]1NC2(CCCCCCC2)C(=O)N(CC(=O)NO)C1=O` [Compound 4c], the IC50 in series [3] was 125 nM.
`CN(CC(=O)NO)C(=O)CN1C(=O)CNC2(C1=O)C1CC3CC(C1)CC2C3` (stereo not drawn) [Compound 21]: in series [1], the “times more potent than the nonmethylated counterpart” value amounted to 19 fold. Besides, in series [1] (Trypanosoma brucei), inhibition was half-maximal at 1330 ± 110 nM (IC50) and it took 3.42 ± 0.85 µM to reach the 90% level (IC90). This molecule also came in with a concentration for half-maximal inhibition (IC50) at 6 days in series [4] of 376 ± 7 µM. In series [2], the “Selectivity indices (SIs)” value is 285.
For the molecule `CN1CC(=O)N(CC(=O)NO)C(=O)C12CCCCCCC2` [Compound 4b], in series [3], the IC50 is 158 nM.
For the molecule `O=C(CNC(=O)CN1C(=O)[C@H](Cc2ccccc2)NC2(C1=O)C1CC3CC(C1)CC2C3)NO` (stereo partly drawn) [Compound 20], the “times more potent than the unsubstituted parent” value in series [1] turned out to be 20 fold. In series [1] (Trypanosoma brucei), the IC50 was found to be 1230 ± 200 nM and the concentration for an effect of 90% (IC90) is 4.88 ± 0.74 µM. In series [4], this molecule returned a half-inhibitory concentration (IC50) at 6 days of 29 ± 2 µM. Moreover, in series [2], the “Selectivity indices (SIs)” value worked out at 24.
Turning to `CN1CC(=O)N(CC(=O)NO)C(=O)C12C1CC3CC(C1)CC2C3` (stereo not drawn) [Compound 1b], the IC50 in series [3] was 193 nM.
Take `CC(C)C[C@@H]1NC2(CCCCCC2)C(=O)N(CC(=O)NCC(=O)NO)C1=O` [Compound 28]: the “times more potent than the unsubstituted parent” value in series [1] was > 18 fold. In series [1] (Trypanosoma brucei), this molecule registered an IC50 of 1650 ± 130 nM and an IC90 of 3.33 ± 0.13 µM. In series [4], this molecule displayed a half-maximal inhibitory concentration (IC50) at 6 days of 390 ± 6 µM. The “Selectivity indices (SIs)” value in series [2] is reported as 235.
As to `O=C(CNC(=O)CN1C(=O)CNC2(CCCCCC2)C1=O)NO` [Compound 27], in series [1] (Trypanosoma brucei), the IC50 was > 30000 nM. Further, the “trypanocidal activity (in words)” value in series [1] was “inactive”.
As to `CN1CC(=O)N(CC(=O)NO)C(=O)C12CCCCCC2` [Compound 5b], the 50% inhibitory concentration (IC50) in series [3] was 285 nM.
As to `CC(C)C[C@@H]1NC2(CCCCCCC2)C(=O)N(CC(=O)NO)C1=O` [Compound 4d], the concentration for half-maximal inhibition (IC50) in series [3] was 72 nM.
With `O=C(CN1C(=O)[C@H](Cc2ccccc2)NC2(C1=O)C1CC3CC(C1)CC2C3)NO` (stereo partly drawn) [Compound 1f], in series [3], the IC50 was 6.8 nM.

The record behind these values is article PMC11247629, “New Lipophilic Hydroxamates as Promising Trypanocidal Agents: Design, Synthesis, SAR, and Conformational Behavior Studies” (ACS Medicinal Chemistry Letters, 2024).
